Experimental findings from patent EP4796530A1 (Biocells (Beijing) Biotech Co., Ltd., priority 2023, dated 2025) are described below.

The target in one data set is NLRP3 (Mus musculus, UniProt Q8R4B8). The experiment in a line: Inhibition of canonical NLRP3 activation (LPS+ATP/Nig) in J774A.1 cells, IL-1β release by ELISA, single concentration. In kind it is cell-based. Also on record: The mouse macrophage cell line J774A.1 was used, and LPS was used as the first signal; host or cells: J774A.1 mouse monocyte-macrophage cell line. To be noted: J774.A1, 1 µM compound, LPS + 5 mM ATP or 10 µM Nig, compared with the positive control, read-out: inhibition of IL-1β release. On the technique in general: An ELISA detects its analyte on a solid surface through an enzyme-linked reagent.
Sequence of NLRP3 (Q8R4B8 whole entry): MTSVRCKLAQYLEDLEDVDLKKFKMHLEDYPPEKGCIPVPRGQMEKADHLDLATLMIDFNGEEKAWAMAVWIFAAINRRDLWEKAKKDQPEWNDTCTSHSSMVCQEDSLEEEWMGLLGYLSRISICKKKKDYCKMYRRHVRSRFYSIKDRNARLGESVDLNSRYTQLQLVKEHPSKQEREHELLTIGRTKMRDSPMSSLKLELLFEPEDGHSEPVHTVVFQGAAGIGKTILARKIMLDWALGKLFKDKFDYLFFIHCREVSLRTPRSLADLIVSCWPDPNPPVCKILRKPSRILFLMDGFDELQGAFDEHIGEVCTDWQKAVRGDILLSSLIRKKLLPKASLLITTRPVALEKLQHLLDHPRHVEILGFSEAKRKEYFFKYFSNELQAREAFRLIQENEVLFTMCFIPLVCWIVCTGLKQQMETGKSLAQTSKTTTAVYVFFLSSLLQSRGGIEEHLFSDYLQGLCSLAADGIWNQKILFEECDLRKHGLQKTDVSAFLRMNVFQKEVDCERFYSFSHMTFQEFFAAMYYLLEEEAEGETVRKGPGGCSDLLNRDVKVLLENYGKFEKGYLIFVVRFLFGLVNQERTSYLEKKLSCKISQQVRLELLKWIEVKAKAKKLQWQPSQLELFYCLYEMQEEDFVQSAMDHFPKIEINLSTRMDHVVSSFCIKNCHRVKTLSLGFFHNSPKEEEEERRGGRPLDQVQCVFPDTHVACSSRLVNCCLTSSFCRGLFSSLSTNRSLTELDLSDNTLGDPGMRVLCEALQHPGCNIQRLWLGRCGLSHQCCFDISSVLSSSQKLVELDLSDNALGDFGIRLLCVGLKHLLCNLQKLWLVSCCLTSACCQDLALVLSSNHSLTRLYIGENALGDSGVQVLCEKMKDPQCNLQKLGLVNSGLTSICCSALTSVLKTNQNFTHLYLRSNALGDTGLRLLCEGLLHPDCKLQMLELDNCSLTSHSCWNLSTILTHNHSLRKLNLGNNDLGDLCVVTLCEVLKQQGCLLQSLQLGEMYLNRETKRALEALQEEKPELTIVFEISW

In a further data set the target is T1, hERG potassium channel (Homo sapiens, UniProt Q12809).
T1 construct: host or cells: HEK-293 stably expressing hERG
T1 sequence (Q12809 whole entry): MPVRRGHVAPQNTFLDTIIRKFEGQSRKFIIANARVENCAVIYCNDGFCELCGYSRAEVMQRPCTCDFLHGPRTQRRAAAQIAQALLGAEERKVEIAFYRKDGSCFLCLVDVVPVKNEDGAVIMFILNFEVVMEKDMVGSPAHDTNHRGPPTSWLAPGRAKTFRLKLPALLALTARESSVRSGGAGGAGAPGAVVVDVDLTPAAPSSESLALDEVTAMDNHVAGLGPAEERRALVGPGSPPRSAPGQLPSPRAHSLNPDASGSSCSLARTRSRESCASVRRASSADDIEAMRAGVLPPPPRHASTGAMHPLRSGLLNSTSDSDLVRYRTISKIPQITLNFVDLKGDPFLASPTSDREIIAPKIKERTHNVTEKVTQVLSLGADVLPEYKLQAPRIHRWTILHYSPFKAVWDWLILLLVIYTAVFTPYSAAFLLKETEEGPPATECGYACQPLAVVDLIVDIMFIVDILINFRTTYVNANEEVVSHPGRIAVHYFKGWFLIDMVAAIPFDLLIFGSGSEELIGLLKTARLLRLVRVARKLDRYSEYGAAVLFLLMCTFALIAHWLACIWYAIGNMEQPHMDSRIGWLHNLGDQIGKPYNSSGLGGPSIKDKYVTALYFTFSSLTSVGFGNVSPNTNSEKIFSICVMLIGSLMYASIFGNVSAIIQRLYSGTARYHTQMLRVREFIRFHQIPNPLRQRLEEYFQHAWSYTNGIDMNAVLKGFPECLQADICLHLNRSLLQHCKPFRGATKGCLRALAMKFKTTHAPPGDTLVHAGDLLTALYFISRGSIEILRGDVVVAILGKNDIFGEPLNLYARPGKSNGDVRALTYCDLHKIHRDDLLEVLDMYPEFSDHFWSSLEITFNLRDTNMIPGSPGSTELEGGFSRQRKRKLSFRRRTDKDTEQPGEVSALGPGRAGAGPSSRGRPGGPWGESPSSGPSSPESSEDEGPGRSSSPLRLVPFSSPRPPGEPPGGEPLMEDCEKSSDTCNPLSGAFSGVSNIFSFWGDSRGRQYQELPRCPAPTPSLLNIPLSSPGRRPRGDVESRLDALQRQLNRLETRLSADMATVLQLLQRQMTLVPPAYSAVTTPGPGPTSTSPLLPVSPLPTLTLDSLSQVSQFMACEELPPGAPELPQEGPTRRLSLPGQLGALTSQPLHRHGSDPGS
The experiment in a line: hERG inhibition, automated patch clamp (QPatch 48X) in HEK-293 cells stably expressing hERG. Format: cell-based. Particulars: HEK-293 cells stably expressing hERG potassium channel, read-out: hERG inhibition rate; for inhibition at 1 µM: pH 7.4, 1 µM; for inhibition at 10 µM: pH 7.4, 10 µM. The method, then:
The culture temperature was 37 °C, and the carbon dioxide concentration was 5%.
Cell passage: The old medium was removed, and the cells were washed once with PBS. […] Once the cells were detached from the bottom of the dish, approximately 5 mL of complete medium pre-warmed at 37 °C was added. The cell suspension was gently triturated with a pipette to dissociate aggregated cells. The cell suspension was transferred to a sterile centrifuge tube and centrifuged at 1000 rpm for 5 min to collect the cells. For expansion or maintenance, the cells were seeded into 10 cm cell culture dishes at a density of 6×10^5 cells per cell culture dish (final volume: 5 mL).
Medium was added to terminate digestion, followed by centrifugation. The cells were then resuspended and counted. The cell density was adjusted to 2-3×10^6 cells/mL. Subsequently, the cells were gently mixed for 15-20 min on a balance shaker at room temperature, and then loaded for detection.
In this study, the automated patch clamp QPatch 48X (Sophion) system was used for electrophysiological detection.
First, the prepared cells were placed on the centrifuge of the Qpatch workstation. The cells were washed with multiple centrifugation/suspension cycles, and the cell culture medium was replaced with extracellular fluid. One MTP-96 plate was retrieved and placed at the MTP source position. The QPlate chip was retrieved and placed at the QPlate source position. The robotic arm scanned the barcodes of MTP-96 plate and QPlate chip, and transferred them to the measurement station. The intracellular fluid and extracellular fluid were aspirated from the reservoir and added to the intracellular fluid pool and the pool of cell and compound of the QPlate chip, respectively. At the measurement station, all measurement sites on the QPlate experienced initial quality control. The quality control process involved aspirating the cell suspension from the cell container of the centrifuge, positioning the cells onto the chip wells via a pressure controller, and establishing high-resistance seal to form a whole-cell recording mode. Once a stable control current baseline was obtained, the test substances can be sequentially aspirated from the test substance MTP-96 plate in order of concentration and applied to the cells.
The voltage stimulation protocol for whole-cell patch-clamp recording of hERG current was as follows: after the whole-cell seal was formed, the cell membrane voltage was clamped at -80 mV. The clamped voltage was depolarized from -80 mV to -50 mV and maintained for 0.5 s (as leak current detection), then stepped to 30 mV and maintained for 2.5 s, and then rapidly returned to -50 mV and maintained for 4 s, whereby tail current of the hERG channel can be elicited. Data was collected repeatedly every 10 s to observe the effect of the drug on hERG tail current. Experimental data was collected by the QPatch screening workstation and stored in the database server.
For each drug concentration, a two-dose regimen was set for a duration of at least 5 min. For each cell, the current detected in the compound-free extracellular fluid served as self-controls, and two cells were detected in independent replicates. All electrophysiological experiments were conducted at room temperature.
The second of the two dosages was used for data analysis. For each drug concentration, the average of the last three data points prior to the next drug concentration was taken to represent the current value for the drug concentration. The current value representing each drug concentration was normalized against the reference current value used as a blank control, and then the inhibition rate corresponding to each drug concentration was calculated.

Structures are written as SMILES.

As to `CN(C)Cc1cccc(S(=O)(=O)NC(=O)Nc2c3c(cc4c2CCC4)CCC3)c1N` [Example 19, 2-amino-3-((dimethylamino)methyl)-N-((1,2,3,5,6,7-hexahydro-s-indacen-4-yl)carbamoyl)benzenesulfonamide], the inhibition (in general, the change of the read-out against control, counted positive when it falls) at 1 µM on NLRP3 is more than 80%. Further, at hERG potassium channel, the inhibition at 1 µM came to 0.3% and the inhibition at 10 µM is 2.96%.

Turning to `CN(C)Cc1cc(S(=O)(=O)NC(=O)Nc2c3c(cc4c2CCC4)CCC3)ccc1O` [Example 5, 3-((dimethylamino)methyl)-N-((1,2,3,5,6,7-hexahydro-s-indacen-4-yl)carbamoyl)-4-hydroxybenzenesulfonamide], the inhibition at 1 µM on NLRP3 was more than 80%. Also, on hERG potassium channel, the inhibition at 1 µM is 0.28% and the inhibition at 10 µM is -0.61%.

In the case of `COc1ccc(S(=O)(=O)NC(=O)Nc2c3c(cc4c2CCC4)CCC3)cc1CN(C)C` [Example 3, 3-((dimethylamino)methyl)-N-((1,2,3,5,6,7-hexahydro-s-indacen-4-yl)carbamoyl)-4-methoxybenzenesulfonamide], the values for the inhibition at 1 µM on NLRP3 and on hERG potassium channel were more than 80% and 0.45%, respectively. For the same compound, the inhibition at 10 µM on hERG potassium channel amounted to 1.56%.
